Measured values taken from patent US10941121B2 (AZIENDA OSPEDALIERA UNIVERSITARIA SENESE, priority 2015, dated 2021).
Read-outs that look alike come from different tables or passages of the source.

What was measured:
[1] = test system: HIV-1 strains carrying resistance mutations; assay: microbe, parasite or virus in culture; type: cell-based; conditions: for IC50: Human immunodeficiency virus 1, TZM-bl
[2] = Cytotoxicity, MTT method in LUNET cells; type: cell-based; conditions: human; MMT method in LUNET cells; read-out: CC50 (μM) non-infected cells
Method: Toxicity (CC50) was analysed in the Lunet/HuH7 cells by the addition of 10 μL of MTT (3-(4,5-dimethylthiazol-2-yl)-2,5-diphenyltetrazolium bromide) per well. After 4 h of incubation at 37° C. in a humidified atmosphere with 5% CO2, the amount of formazan produced was quantified spectrophotometrically at 550/620 nm (C. Pannecouque et al, Nature protocol 2008; 3 (3): 427-434). […] These assays were done in duplicate.

[3] = test system: HCV Jc1 (genotype 2a virus); assay: HCV infectious cell culture system, NS5A immunostaining; conditions: Hepatitis C virus, Huh7.5, read-out: HCV EC50
NS3 (DENV) = NS3 (DENV) (Orthoflavivirus denguei (Dengue virus), UniProt P29990); assay: Selectivity of 20a: NS3 (DENV); type: biochemical
JEV strain (NJ2008) = assay: JEV infectious cell culture system, plaque formation assay in BHK-21 cells; conditions: Japanese encephalitis virus, BHK-21, read-out: JEV EC50
DDX1 = target: T1, DDX1 (Homo sapiens, UniProt Q92499); assay: Selectivity of 20a: DDX1; type: biochemical; conditions: >200 = less than 20% of inhibition at 200 μM, the highest concentration tested
T1 sequence (Q92499 1-740): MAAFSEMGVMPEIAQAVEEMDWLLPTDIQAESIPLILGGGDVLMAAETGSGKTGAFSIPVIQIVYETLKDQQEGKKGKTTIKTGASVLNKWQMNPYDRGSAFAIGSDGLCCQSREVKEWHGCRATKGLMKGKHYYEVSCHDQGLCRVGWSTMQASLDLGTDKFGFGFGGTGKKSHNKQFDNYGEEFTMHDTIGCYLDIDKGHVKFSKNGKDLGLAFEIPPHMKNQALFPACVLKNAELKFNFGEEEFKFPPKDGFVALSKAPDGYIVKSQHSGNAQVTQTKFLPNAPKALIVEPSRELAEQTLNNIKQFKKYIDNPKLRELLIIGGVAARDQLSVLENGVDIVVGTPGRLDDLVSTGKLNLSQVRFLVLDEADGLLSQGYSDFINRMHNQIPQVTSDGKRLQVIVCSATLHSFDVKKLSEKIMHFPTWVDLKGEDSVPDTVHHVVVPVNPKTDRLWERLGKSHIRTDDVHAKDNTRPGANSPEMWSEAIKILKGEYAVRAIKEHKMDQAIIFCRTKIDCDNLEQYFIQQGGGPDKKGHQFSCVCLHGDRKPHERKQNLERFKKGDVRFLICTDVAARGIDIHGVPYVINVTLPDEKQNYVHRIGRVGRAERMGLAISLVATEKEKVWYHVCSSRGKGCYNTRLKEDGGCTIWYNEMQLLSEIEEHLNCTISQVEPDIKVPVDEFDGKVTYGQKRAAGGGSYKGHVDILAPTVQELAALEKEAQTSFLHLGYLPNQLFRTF

[4] = Cytotoxicity in Huh7 cells, nuclei counts; conditions: human
HIV (PBMC) = assay: HIV infectious cell culture system in PBMC, HIV-1 RNA in supernatant; conditions: Human immunodeficiency virus 1, PBMC, 72 h, read-out: EC50 HIV (PBMC) 72 h
[5] = test system: Hepatitis C Virus (HCV) replicon system; assay: HCV replicon system, luciferase method in LucUbiNeo-ET cells
DDX3 Helicase = DDX3 Helicase (Homo sapiens, UniProt O00571); conditions: read-out: ID50 (μM) against DDX3 Helicase; n.a. = compound not active
Water Solubility Assay = type: physicochemical; conditions: thermodynamic from solid
[6] = Cytotoxicity in PBMC, CellTiter 96 MTS viability assay; type: cell-based; conditions: human, human primary PBMCs
[7] = test system: HIV-1 wild-type reference strain NL4-3; assay: HIV-1 phenotypic assay, MT-2 cells then TZM-bl cells, luciferase; type: cell-based; conditions: Human immunodeficiency virus 1, NL43

DDX3 Helicase, sequence (O00571 whole entry): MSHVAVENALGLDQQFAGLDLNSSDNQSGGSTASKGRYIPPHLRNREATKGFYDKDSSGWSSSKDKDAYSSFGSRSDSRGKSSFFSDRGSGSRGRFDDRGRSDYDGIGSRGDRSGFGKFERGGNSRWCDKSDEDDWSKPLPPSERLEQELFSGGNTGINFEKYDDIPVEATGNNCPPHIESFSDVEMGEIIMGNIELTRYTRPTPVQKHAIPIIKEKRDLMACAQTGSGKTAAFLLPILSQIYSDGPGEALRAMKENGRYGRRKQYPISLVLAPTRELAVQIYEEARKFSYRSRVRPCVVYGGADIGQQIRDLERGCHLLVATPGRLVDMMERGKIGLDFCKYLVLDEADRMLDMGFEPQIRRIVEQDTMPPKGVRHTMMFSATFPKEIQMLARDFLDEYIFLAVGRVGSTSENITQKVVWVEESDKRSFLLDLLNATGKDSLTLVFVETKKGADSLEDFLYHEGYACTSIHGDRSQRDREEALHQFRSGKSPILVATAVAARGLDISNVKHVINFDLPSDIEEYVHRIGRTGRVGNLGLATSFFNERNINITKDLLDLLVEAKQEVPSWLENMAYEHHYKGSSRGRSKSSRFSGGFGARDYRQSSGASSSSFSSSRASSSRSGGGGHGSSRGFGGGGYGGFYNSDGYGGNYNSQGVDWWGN
NS3 (DENV), sequence (P29990 1476-2093): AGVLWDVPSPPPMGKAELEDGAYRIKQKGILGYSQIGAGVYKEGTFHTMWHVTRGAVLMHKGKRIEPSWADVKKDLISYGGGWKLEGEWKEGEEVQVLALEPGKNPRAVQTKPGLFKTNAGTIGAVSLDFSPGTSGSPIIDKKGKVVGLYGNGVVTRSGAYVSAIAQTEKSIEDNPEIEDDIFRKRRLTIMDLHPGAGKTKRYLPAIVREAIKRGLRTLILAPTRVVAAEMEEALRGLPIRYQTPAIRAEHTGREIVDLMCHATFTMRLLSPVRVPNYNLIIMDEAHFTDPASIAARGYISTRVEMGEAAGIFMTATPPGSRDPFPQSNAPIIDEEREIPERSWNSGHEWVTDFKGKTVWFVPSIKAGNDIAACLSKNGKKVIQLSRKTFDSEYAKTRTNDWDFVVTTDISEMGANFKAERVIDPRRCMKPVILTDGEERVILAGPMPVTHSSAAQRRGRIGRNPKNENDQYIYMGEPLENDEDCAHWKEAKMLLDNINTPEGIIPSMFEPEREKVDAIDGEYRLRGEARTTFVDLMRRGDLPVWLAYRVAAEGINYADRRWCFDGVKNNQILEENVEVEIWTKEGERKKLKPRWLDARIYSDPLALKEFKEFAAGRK

## CCCCc1cn(-c2ccc(NC(=O)Nc3ccccc3C)cc2)nn1 [Compound 20a, 1-(4-(4-butyl-1H-1,2,3-triazol-1-yl)phenyl)-3-o-tolylurea]
[1]; read-out: IC50 [95% CI] (μM), HIV-1 strain 7404
  IC50: 0.22 µM
[1]; read-out: IC50 [95% CI] (μM), HIV-1 strain 7406
  IC50: 0.33 µM
[1]; read-out: IC50 [95% CI] (μM), HIV-1 strain 11808
  IC50: 0.23 µM
[1]; read-out: IC50 [95% CI] (μM), HIV-1 strain 11845
  IC50: 0.37 µM
[1]; read-out: IC50 [95% CI] (μM), HIV-1 strain 12227
  IC50: 0.94 µM
[1]; read-out: IC50 [95% CI] (μM), HIV-1 strain 12235
  IC50: 0.36 µM
[1]; resistant strain IC50 to wild type strain IC50 ratio, 7404 NRTIs
  Fold change, strain 7404: 0.2
[1]; resistant strain IC50 to wild type strain IC50 ratio, 7406 NRTIs
  Fold change, strain 7406: 0.3
[1]; resistant strain IC50 to wild type strain IC50 ratio, 11808 PIs
  Fold change, strain 11808: 0.2
[1]; resistant strain IC50 to wild type strain IC50 ratio, 11845 INIs
  Fold change, strain 11845: 0.3
[1]; resistant strain IC50 to wild type strain IC50 ratio, 12227 NNRTIs
  Fold change, strain 12227: 0.8
[1]; resistant strain IC50 to wild type strain IC50 ratio, 12235 NNRTIs
  Fold change, strain 12235: 0.3
[1]; viruses carrying resistance mutations
  activity against resistant HIV viruses, in words: retained full activity
[2]
  CC50: 49.8 µM
[3]
  EC50: 3.8 µM
NS3 (DENV)
  IC50: > 200 µM
JEV strain (NJ2008)
  EC50: 20 µM
DDX1
  IC50: > 200 µM
[4]; DENV CC50, Huh7 cells, DENV experiment
  CC50 at 48 h: > 787 µM
[4]; WNV CC50, Huh7 cells, WNV experiment
  CC50 at 48 h: > 500 µM
HIV (PBMC)
  EC50: 30 µM
[5]
  activity against HCV, in words: best activity
[5]; Hepatitis C virus, 48 h, read-out: EC50 (μM) HCV replicon system
  EC50: 0.97 µM
DDX3 Helicase
  IC50: 0.3 µM
Water Solubility Assay; experimental aqueous solubility, read-out: LogS (converted)
  solubility: 0.0891 µM
Water Solubility Assay; room temperature, 24-36 h, read-out: Aq. Solub.
  solubility: 0.135 µg/mL
[6]; 24 h
  CC50 at 24 h: > 1000 µM
[6]; 48 h
  CC50 at 48 h: > 1000 µM
[6]; 72 h
  CC50 at 72 h: > 1000 µM
[7]; first cycle in MT-2 cells, additional round in TZM-bl cells
  EC50: 1.1 µM
[7]; strain 114, NL4-3 wild type, read-out: IC50 [95% CI] (μM), HIV-1 strain 114
  IC50: 1.11 µM
